Molecular target: T1, Ileal sodium/bile acid cotransporter (Homo sapiens, UniProt Q12908)
T1 sequence (Q12908 whole entry): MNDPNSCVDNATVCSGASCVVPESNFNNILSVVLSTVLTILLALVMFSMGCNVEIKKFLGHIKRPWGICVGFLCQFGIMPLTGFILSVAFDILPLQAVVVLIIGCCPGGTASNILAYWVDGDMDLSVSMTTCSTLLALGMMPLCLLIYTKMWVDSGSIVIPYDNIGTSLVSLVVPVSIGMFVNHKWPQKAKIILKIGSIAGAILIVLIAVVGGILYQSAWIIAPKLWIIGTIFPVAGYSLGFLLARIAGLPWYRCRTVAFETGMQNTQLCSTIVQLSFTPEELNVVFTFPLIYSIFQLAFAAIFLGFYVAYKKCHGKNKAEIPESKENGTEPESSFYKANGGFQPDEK
Assay: Inhibition Assay: On the day of the uptake experiment, 10 mM HEPES was added to Hank's Balanced Salt Solution, and the pH was adjusted to 7.4 with TRIS (HBSSH). The assay buffer was prepared by adding 100 uM [3H]-taurocholate and 10 uM cold taurocholate to room temperature HBSSH. A separate washing buffer was prepared by adding 10 uM cold taurocholate to HBSSH (30 ml per assay plate) and placed on ice. Using 100% DMSO, 8 point, 3-fold dilution curves for each test compound was prepared starting at 200 uM. Similarly, an 8 point dose response curve was prepared of the control compound [(3R,5R)-3-butyl-3-ethyl-7,8-bis(methyloxy)-5-phenyl-2,3,4,5-tetrahydro-1,4-benzothiazepine 1,1-dioxide (Brieaddy, L. E. WO9605188, 1996)] starting at 1.8 mM. Drug plates were created by adding 3 uL of each concentration to a v-bottom 96-well plate then diluted 60-fold with 177 uL of assay buffer. Plates were removed from the incubator and allowed to cool to ambient temperature.

IC50: 13 nM
Compound: CCCC[C@]1(CC)CS(=O)(=O)c2cc(CN[C@@H](CCS(C)(=O)=O)C(=O)O)c(OC)cc2[C@@H](c2ccccc2)N1
